Results as given in the supplement of paper PMC8671470.

What follows are compounds tested on NOMO-1. Conditions: 72 h.
In short: (§1)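 In 384-well plates holding acoustically pre-printed compounds at five tenfold doses from 1 to 10,000 nM, in duplicate, fifteen myeloid leukaemia cell lines were grown in RPMI 1640 for 72 h at 37 °C with 5% CO2. Luminescent ATP viability was scaled between vehicle and a positive control at 10 µM. The IC50 was then taken from log-logistic dose–response fits with four parameters.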

Compound	IC50 (cell viability) [µM]
C[C@H](NC(=O)c1sccc1OCc1ccc(Cl)cc1)c1ccccc1	> 10
O=C(O)c1cc(Cl)cc(Cl)c1O [3,5-Dichlorosalicylic Acid]	> 10
O=C(O)C(=O)CBr [3-bromopyruvic acid]	> 10
NS(=O)(=O)c1ccc([N+](=O)[O-])cc1 [4-Nitrobenzenesulfonamide]	> 10
Cc1ccccc1C(C(=O)NC1CCCCC1)N(C(=O)Cn1ccnc1C)c1cccc(F)c1 (configuration not stated) [AGI-5198]	> 10
CC(C)(C#N)c1cc(Cn2cncn2)cc(C(C)(C)C#N)c1 [Anastrozole]	> 10
O=C(O)C1=CC(=C(c2ccc(O)c(C(=O)O)c2)c2ccc(O)c(C(=O)O)c2)C=CC1=O [Aurintricarboxylic acid]	> 10

Each compound was assayed on KU-812. Conditions: 72 h.
In short: as §1

Compound	IC50 (cell viability) [µM]
CN(C)C(=O)[C@H](O)[C@H](Cc1ccccc1)NC(=O)c1cc2cc(Cl)ccc2[nH]1	> 10
COc1ccc(CNC(=O)Nc2ncc([N+](=O)[O-])s2)cc1	> 10
CCOP(=O)(OCC)C(=Cc1cc(C(C)(C)C)c(O)c(C(C)(C)C)c1)P(=O)(OCC)OCC	> 10
COc1ccc(-c2ccccc2)cc1NS(=O)(=O)c1cc(Cl)cc(Cl)c1O	> 10
C[C@H](NC(=O)c1sccc1OCc1ccc(Cl)cc1)c1ccccc1	> 10
O=C(O)c1cc(Cl)cc(Cl)c1O [3,5-Dichlorosalicylic Acid]	> 10
O=C(O)C(=O)CBr [3-bromopyruvic acid]	> 10
NS(=O)(=O)c1ccc([N+](=O)[O-])cc1 [4-Nitrobenzenesulfonamide]	> 10
Cc1ccccc1C(C(=O)NC1CCCCC1)N(C(=O)Cn1ccnc1C)c1cccc(F)c1 (configuration not stated) [AGI-5198]	> 10
CC(C)(C#N)c1cc(Cn2cncn2)cc(C(C)(C)C#N)c1 [Anastrozole]	> 10
O=C(O)C1=CC(=C(c2ccc(O)c(C(=O)O)c2)c2ccc(O)c(C(=O)O)c2)C=CC1=O [Aurintricarboxylic acid]	> 10

What follows are compounds tested on ML-2. Conditions: 72 h.
In short: as §1

Compound	IC50 (cell viability) [µM]
CN(C)C(=O)[C@H](O)[C@H](Cc1ccccc1)NC(=O)c1cc2cc(Cl)ccc2[nH]1	> 10
COc1ccc(CNC(=O)Nc2ncc([N+](=O)[O-])s2)cc1	> 10
CCOP(=O)(OCC)C(=Cc1cc(C(C)(C)C)c(O)c(C(C)(C)C)c1)P(=O)(OCC)OCC	> 10
COc1ccc(-c2ccccc2)cc1NS(=O)(=O)c1cc(Cl)cc(Cl)c1O	> 10
C[C@H](NC(=O)c1sccc1OCc1ccc(Cl)cc1)c1ccccc1	> 10
O=C(O)c1cc(Cl)cc(Cl)c1O [3,5-Dichlorosalicylic Acid]	> 10
O=C(O)C(=O)CBr [3-bromopyruvic acid]	> 10
NS(=O)(=O)c1ccc([N+](=O)[O-])cc1 [4-Nitrobenzenesulfonamide]	> 10
Cc1ccccc1C(C(=O)NC1CCCCC1)N(C(=O)Cn1ccnc1C)c1cccc(F)c1 (configuration not stated) [AGI-5198]	> 10
CC(C)(C#N)c1cc(Cn2cncn2)cc(C(C)(C)C#N)c1 [Anastrozole]	> 10
O=C(O)C1=CC(=C(c2ccc(O)c(C(=O)O)c2)c2ccc(O)c(C(=O)O)c2)C=CC1=O [Aurintricarboxylic acid]	> 10

These compounds were tested on KG-1. Conditions: 72 h.
In short: as §1

Compound	IC50 (cell viability) [µM]
CN(C)C(=O)[C@H](O)[C@H](Cc1ccccc1)NC(=O)c1cc2cc(Cl)ccc2[nH]1	> 10
COc1ccc(CNC(=O)Nc2ncc([N+](=O)[O-])s2)cc1	> 10
CCOP(=O)(OCC)C(=Cc1cc(C(C)(C)C)c(O)c(C(C)(C)C)c1)P(=O)(OCC)OCC	> 10
COc1ccc(-c2ccccc2)cc1NS(=O)(=O)c1cc(Cl)cc(Cl)c1O	> 10
C[C@H](NC(=O)c1sccc1OCc1ccc(Cl)cc1)c1ccccc1	> 10
O=C(O)c1cc(Cl)cc(Cl)c1O [3,5-Dichlorosalicylic Acid]	> 10
O=C(O)C(=O)CBr [3-bromopyruvic acid]	> 10
NS(=O)(=O)c1ccc([N+](=O)[O-])cc1 [4-Nitrobenzenesulfonamide]	> 10
Cc1ccccc1C(C(=O)NC1CCCCC1)N(C(=O)Cn1ccnc1C)c1cccc(F)c1 (configuration not stated) [AGI-5198]	> 10
CC(C)(C#N)c1cc(Cn2cncn2)cc(C(C)(C)C#N)c1 [Anastrozole]	> 10
O=C(O)C1=CC(=C(c2ccc(O)c(C(=O)O)c2)c2ccc(O)c(C(=O)O)c2)C=CC1=O [Aurintricarboxylic acid]	> 10

Each compound was assayed on LAMA-84. Conditions: 72 h.
In short: as §1

Compound	IC50 (cell viability) [µM]
CN(C)C(=O)[C@H](O)[C@H](Cc1ccccc1)NC(=O)c1cc2cc(Cl)ccc2[nH]1	> 10
COc1ccc(CNC(=O)Nc2ncc([N+](=O)[O-])s2)cc1	> 10
CCOP(=O)(OCC)C(=Cc1cc(C(C)(C)C)c(O)c(C(C)(C)C)c1)P(=O)(OCC)OCC	> 10
COc1ccc(-c2ccccc2)cc1NS(=O)(=O)c1cc(Cl)cc(Cl)c1O	> 10
C[C@H](NC(=O)c1sccc1OCc1ccc(Cl)cc1)c1ccccc1	> 10
O=C(O)c1cc(Cl)cc(Cl)c1O [3,5-Dichlorosalicylic Acid]	> 10
O=C(O)C(=O)CBr [3-bromopyruvic acid]	> 10
NS(=O)(=O)c1ccc([N+](=O)[O-])cc1 [4-Nitrobenzenesulfonamide]	> 10
Cc1ccccc1C(C(=O)NC1CCCCC1)N(C(=O)Cn1ccnc1C)c1cccc(F)c1 (configuration not stated) [AGI-5198]	> 10
CC(C)(C#N)c1cc(Cn2cncn2)cc(C(C)(C)C#N)c1 [Anastrozole]	> 10
O=C(O)C1=CC(=C(c2ccc(O)c(C(=O)O)c2)c2ccc(O)c(C(=O)O)c2)C=CC1=O [Aurintricarboxylic acid]	> 10

What follows are compounds tested on SHI-1. Conditions: 72 h.
In short: as §1

Compound	IC50 (cell viability) [µM]
CN(C)C(=O)[C@H](O)[C@H](Cc1ccccc1)NC(=O)c1cc2cc(Cl)ccc2[nH]1	> 10
COc1ccc(CNC(=O)Nc2ncc([N+](=O)[O-])s2)cc1	> 10
CCOP(=O)(OCC)C(=Cc1cc(C(C)(C)C)c(O)c(C(C)(C)C)c1)P(=O)(OCC)OCC	> 10
COc1ccc(-c2ccccc2)cc1NS(=O)(=O)c1cc(Cl)cc(Cl)c1O	> 10
C[C@H](NC(=O)c1sccc1OCc1ccc(Cl)cc1)c1ccccc1	> 10
O=C(O)c1cc(Cl)cc(Cl)c1O [3,5-Dichlorosalicylic Acid]	> 10
O=C(O)C(=O)CBr [3-bromopyruvic acid]	> 10
NS(=O)(=O)c1ccc([N+](=O)[O-])cc1 [4-Nitrobenzenesulfonamide]	> 10
Cc1ccccc1C(C(=O)NC1CCCCC1)N(C(=O)Cn1ccnc1C)c1cccc(F)c1 (configuration not stated) [AGI-5198]	> 10
CC(C)(C#N)c1cc(Cn2cncn2)cc(C(C)(C)C#N)c1 [Anastrozole]	> 10
O=C(O)C1=CC(=C(c2ccc(O)c(C(=O)O)c2)c2ccc(O)c(C(=O)O)c2)C=CC1=O [Aurintricarboxylic acid]	> 10
